Source: US20150238445A1 (CATHOLIC UNIVERSITY INDUSTRY ACADEMIC COOPERATION FOUNDATION, priority 2012, published 2015)

Key:
[1] = system: pathogenic B cells; assay: FACS and staining of spleen cells for pathogenic B cells, GC and THF in lupus mouse model; format: in vivo
Text: Then, spleen cells were separated therefrom and B cell was observed. Particularly, the representative pathogenic B cells, B220−CD138+ long lived plasma B cell and GL7+B220+ germinal center B cell, were observed. For the observation, the spleen cells separated from each group were stained with CD138 and B220 and the […] were stained with GL7 and B220, followed by FACS to examine the expression of each cell.

[2] = system: autophagy; assay: Autophagy molecules and IL-17/Foxp3 in T cells under Th17 differentiation, Western blotting and confocal staining; format: cell-based; details: 1 mM metformin, 24 hours
Procedure: (§1) Particularly, T cells were separated from the spleen cells of the lupus animal model. […] To analyze signal molecules in the cultured cells, protein was extracted from each condition of the cells. Western blotting was performed with the extracted protein. The protein separated by size was conjugated with each antibody against ATG5, p62, and 3-actin. The activity of each molecule was evaluated. Some of the cultured cells were conjugated with DAPI, IL-17, and Foxp3 fluorescent antibodies, whose expressions were examined under fluorescent microscope after confocal staining.

[3] = system: Th17 cell; assay: Th17 cytokine ELISA and electron microscopy with autophagy activity inhibitor in T cells of lupus mouse model; format: cell-based
Procedure: Thus, the present inventors investigated whether or not the activation of autophagy could be directly involved in the suppression of Th17 cell by using an autophagy activity inhibitor. Particularly, T cells were separated from the spleen cells of the lupus mouse model. […] Upon completion of the culture, IL-17, IL-21, and TNF-α cytokines in the culture solution were analyzed by ELISA. Some of those cultured cells were observed under electron microscope to directly observe the activated autophagy therein.

[4] = system: pathogenic B cell; assay: IgG production by LPS-stimulated B cell; format: cell-based, mouse; details: metformin 1 μM, 2 μM, and 5 μM; LPS 1 μg/ml
Procedure: Then, the level of IgG produced by B cell of the mouse was measured by the same manner as described in Example 1.

[5] = system: lupus animal model; assay: Serum lupus-specific dsDNA and IgG by ELISA in the lupus animal model; format: in vivo, mouse; details: oral 100 mg/kg every day
Procedure: At this time, the lupus animal model not treated with metformin was used as the control. […] The analysis of the treatment effect was performed as follows. […] Serum was separated from the blood extracted above. The levels of lupus-specific dsDNA (Sigma, cat no. D8515) and IgG (Sigma) in the separated serum were measured by ELISA. Particularly, 96-well plate was coated with dsDNA or anti-mouse IgG, to which the serum separated from the mouse blood was loaded, followed by reaction. Then, […] was added thereto, followed by reaction. Color development was induced by TMB system and the […] was measured.

[6] = system: Th17 cell; assay: Th17 differentiation of CD4+ T cells from lupus mouse spleen: FACS, real-time PCR, IL-17 ELISA; format: cell-based; details: 3 days
Procedure: Particularly, T cells were separated from the spleen of the lupus mouse model by using CD4+ microbeads. […] Upon completion of the culture, some of the cultured cells were stained with CD4-PerCP and ILo-17 PE, followed by FACS. RNA was separate from the remaining cells, from which Th17 cell related gene was amplified by real-time PCR. The expression of IL-17 in the culture solution was analyzed by ELISA (antigen-antibody examination).

[7] = system: undifferentiated B cell; assay: Differentiation of undifferentiated B cell into regulatory B cell (Breg); format: cell-based; details: undifferentiated B cell treated with metformin
Text: As a result, the numbers of both IL-10+ B cell and Foxp3+ B cell were all increased.

[8] = system: TFH cell; assay: TFH cell expression in spleen tissue, confocal staining, lupus animal model; format: in vivo, mouse; details: intraperitoneal injection 3 times a week; 5 weeks after the administration
Procedure: Particularly, CD4-PerCP, B220-APC, GL-7-FITC, and IOCS-PE fluorescence staining was performed. Then, TFH cells expressing GL-7+ICOS+ in CD4 T cells were examined under fluorescent microscope.

[9] = system: regulatory T cell and Th17 cell; assay: Regulatory T cell and Th17 cell activity in lupus animal model; format: in vivo; details: vs control group
[10] = system: B cell; assay: B cell differentiation stages after LPS and metformin for 3 days, FACS; format: cell-based
Procedure: FACS was performed to observe any changes of the cell in each stage of B cell differentiation.

[11] = system: mTOR/STAT3; assay: mTOR/STAT3 signalling in T cells from lupus animal model spleen, Western blotting and confocal staining; format: cell-based
Procedure: as §1, with “p-AMPK, AMPK, p-mTOR, mTOR, p-STAT3 705, p-STAST3 727, STAT3, p-STAT5, STAT5,” for “ATG5, p62,”, “β-actin.” for “3-actin.”, “p-AMPK, AMPK, p-mTOR, p-STAT3 705, p-STAT3 727,” for “DAPI, IL-17,”, “p-p53” for “Foxp3”, “staining” for “staining.”
In addition, nucleus and cytoplasm were separated in order to examine the expression of NrF2 in the nucleus and cytoplasm. Electrophoresis was performed and then Nrf2, tubulin, and β-actin were analyzed by Western blotting.

[12] = system: lupus mouse model; assay: Spleen and liver observation (size, GC follicles, inflammatory cell infiltration) in lupus mouse model; format: in vivo
Procedure: The size of those spleen and liver was measured by the naked eye, and the size and the number of GC follicle (Germinal Center follicle) were also observed.
The infiltration of inflammatory cells around the blood vessels of liver tissue was also observed.

[13] = oral 100 mg/kg every day for 3 weeks, spleen cells, FACS, vs control
[14] = staining of spleen cells, vs lupus mouse model not treated
[15] = vs lupus group not treated with metformin
[16] = real-time PCR, Th17 differentiation
[17] = 1 mM metformin with IL-6 or IL-2 (10 ng/ml), 24 hours

CN(C)C(=N)NC(=N)N [metformin]
B220-CD138+ long lived plasma B cell [1, 13]: significantly reduced
GL7+B220+ germinal center B cell [1, 13]: significantly reduced
number of follicular B helper T cells (THF) [1, 14]: also reduced
size of GC [1, 14]: significantly reduced
ATG5 (autophagy activating molecule) ([2]; Western blotting): activate
p62 (autophagy activating molecule) ([2]; Western blotting): activate
expression of Foxp3 ([2]; confocal staining): increase
expression of IL-17 ([2]; confocal staining): suppress
suppressed IL-17 expression when the autophagy inhibitor was co-treated ([3]; 1 mM metformin plus 10 μM bafilomycin or methyladenine, 72 hours, ELISA): increased
expression of IL-17 ([3]; 1 mM metformin, Th17 differentiation, 72 hours, ELISA): suppressed
intracellular activation of autophagy ([3]; electron microscope): directly confirmed
IgG production in B cell [4]: reduced by metformin dose-dependently
level of IgG in serum [5, 15]: significantly reduced
level of lupus-specific dsDNA in serum [5, 15]: significantly reduced
level of lupus-specific dsDNA in serum compared with normal mouse group ([5]; vs normal (wild type) mouse group): rather lower than that of the normal mouse group
expression of IL-17 ([6]; Th17 differentiation condition, metformin 0.1, 1, and 5 mM, FACS and ELISA): regulated by metformin
expression of Foxp3 gene [6, 16]: increased
expression of Th-17 related gene Ahr [6, 16]: suppression
expression of Th-17 related gene IL-17 [6, 16]: suppression
expression of Th-17 related gene IL-21 [6, 16]: suppression
expression of Th-17 related gene RUNX1 [6, 16]: suppression
expression of Th-17 related gene TNF-α [6, 16]: suppression
number of Foxp3+ B cell [7]: increased
number of IL-10+ B cell [7]: increased
expression of TFH cell expressing ICOS in the spleen tissue [8]: suppressed
activity of Th17 [9]: decreased
activity of regulatory T cell [9]: increased
germinal center B cell [10]: suppressed by metformin dose-dependently
pre-long lived plasma cell B220+CD138 low cell [10]: suppressed by metformin dose-dependently
pro/preB cell in the stage of early B cell differentiation [10]: suppressed by metformin dose-dependently
AMPK activity [11, 17]: activated
mTOR/STAT3 activity [11, 17]: suppression
expression of NrF2 ([11]; 1 mM metformin, nucleus and cytoplasm, Western blotting): increased
size and number of GC follicle ([12]; spleen, vs group not treated with metformin): significantly decreased
size of spleen ([12]; vs group not treated with metformin): significantly reduced
infiltration of inflammatory cells around the blood vessels of liver tissue ([12]; vs lupus mouse group not treated with metformin): hardly observe
